Source: US20110152089A1, “HERBICIDAL COMPOSITIONS COMPRISING FLUFENACET” (Bayer CropScience AG, priority 2009, published 2011)

Tests used:
HORVS [1] = assay: Different soil pH, PE application, crop selectivity, greenhouse (Table 8); type: in vivo, Hordeum vulgare, summer barley
Experimental: (§1) In the standard design of the test, seeds of various broad-leaved weed and weed grass biotypes (origins) were sown in a 8-13 cm diameter pot filled with natural soil of a standard field soil (loamy silt; non-sterile) and covered with a covering soil layer of about 1 cm. The pots were then cultivated in a greenhouse (12-16 h of light, temperature day 20-22° C., night 15-18° C.) until the time of application. The pots were treated on a laboratory track sprayer with spray liquors comprising the compositions according to the invention, mixtures of the prior art or components used individually. Application of the active compounds or active compound combinations formulated as WG, WP, EC or otherwise was carried out at the appropriate growth stages of the plants. The application rate for the spray application was 100-600 l of water/ha. After the treatment, the plants were returned to the greenhouses.
(§2) About 3 weeks after the application, the soil action or/and foliar action was assessed visually according to a scale of 0-100% in comparison to an untreated comparative group: 0%=no noticeable effect compared to the untreated comparative group; 100%=full effect compared to the untreated comparative group.
(§3) (notes: the term “seeds” also includes vegetative propagation forms such as, for example, rhizome pieces; abbreviations used: h light=hours of illumination, g of AS/ha=gram of active substance per hectare, l/ha=liter per hectare, S=sensitive, R=resistant) • 1. Pre-emergence action against weeds: seeds of various broad-leaved weed and weed grass biotypes (origins) were sown in a 8-13 cm diameter pot filled with natural soil of a standard field soil (loamy silt; non-sterile) and covered with a covering soil layer of about 1 cm. The pots were then cultivated in a greenhouse (12-16 h of light, temperature day 20-22° C., night 15-18° C.) until the time of application. The pots were treated at the BBCH stage 00-10 of the seeds/plants on a laboratory track sprayer with spray liquors comprising the compositions according to the invention, mixtures or components used individually, as WG, WP, EC or other formulations. The application rate for the spray application was 100-600 l of water/ha. After the treatment, the plants were returned to the greenhouses and, when required, treated with fertilizer and watered. • 2. Post-emergence action against weeds: seeds of various broad-leaved weed and weed grass biotypes (origins) were sown in a 8-13 cm diameter pot filled with natural soil of a standard field soil (loamy silt; non-sterile) and covered with a covering soil layer of about 1 cm. The pots were then cultivated in a greenhouse (12-16 h of light, temperature day 20-22° C., night 15-18° C.) until the time of application. The pots were treated at various BBCH stages between 11-25 of the seeds/plants, i.e. generally between two to three weeks after the start of the cultivation, on a laboratory track sprayer with spray liquors comprising the compositions according to the invention, mixtures or components used individually, as WG, WP, EC or other formulations. The application rate for the spray application was 100-600 l of water/ha. After the treatment, the plants were returned to the greenhouses and, when required, treated with fertilizer and watered. • 3. Pre-emergence action against weeds with and without incorporation of active compound: seeds of various broad-leaved weed and weed grass biotypes (origins) were sown in a 8-13 cm diameter pot filled with natural soil of a standard field soil (loamy silt; non-sterile). […]

AVEFA = assay: PE application with different irrigation, greenhouse (Table 4); type: in vivo, Avena fatua; conditions: g of AS/ha: (A) 90, (B) 300, (C) 140, (A)+(B)+(C) 90 + 300 + 140
Experimental: as §1, §2, §3

STEME [2] = assay: PE soil application vs incorporation into the soil, greenhouse (Table 1); type: in vivo, Stellaria media; conditions: g of AS/ha: (A) 90, (B) 300, (C) 70, (A)+(B)+(C) 90 + 300 + 70, visual, about 3 weeks after application
Experimental: as §1, §2, §3

TRZAW = assay: Different soil pH, PE application, crop selectivity, greenhouse (Table 8); type: in vivo, Triticum aestivum, winter wheat
Experimental: as §1, §2, §3

STEME [3] = assay: Resistant biotypes, PE application, greenhouse (Table 6); type: in vivo, Stellaria media; conditions: g of AS/ha: (A) 90, (B) 300, (C) 140, (A)+(B)+(C) 120 + 600 + 140, iodosulfuron 10; for activity STEME resistant: resistant biotype; for activity STEME sensitive: sensitive biotype
Experimental: as §1, §2, §3

HORVS [4] = assay: PE soil application vs incorporation into the soil, crop selectivity, greenhouse (Table 1); type: in vivo, Hordeum vulgare, summer barley; conditions: g of AS/ha: (A) 90, (B) 300, (C) 70, (A)+(B)+(C) 90 + 300 + 70, visual, about 3 weeks after application
Experimental: as §1, §2, §3

VIOAR = assay: Activity with different soil types, greenhouse (Table 5); type: in vivo, Viola arvensis; conditions: g of AS/ha: (A) 90, (B) 300, (C) 140, (A)+(B)+(C) 90 + 300 + 140
Experimental: as §1, §2, §3

HORVS [5] = assay: Different sowing depths, PE application, crop selectivity, greenhouse (Table 7); type: in vivo, Hordeum vulgare, summer barley; conditions: g of AS/ha: (A) 90, (B) 300, (C) 140, (A)+(B)+(C) 90 + 300 + 140
Experimental: as §1, §2, §3

STEME [6] = assay: Activity with different soil types, greenhouse (Table 5); type: in vivo, Stellaria media; conditions: g of AS/ha: (A) 90, (B) 300, (C) 140, (A)+(B)+(C) 90 + 300 + 140
Experimental: as §1, §2, §3

POAAN = assay: PO application, greenhouse (Table 2); type: in vivo, Poa annua; conditions: g of AS/ha: (A) 120, (B) 1200, (C) 140, (A)+(B)+(C) 120 + 1200 + 140, visual, about 3 weeks after application
Experimental: as §1, §2
(§4) (notes: the term “seeds” also includes vegetative propagation forms such as, for example, rhizome pieces; abbreviations used: h light=hours of illumination, g of AS/ha=gram of active substance per hectare, l/ha=liter per hectare, S=sensitive, R=resistant) • 1. Pre-emergence action against weeds: seeds of various broad-leaved weed and weed grass biotypes (origins) were sown in a 8-13 cm diameter pot filled with natural soil of a standard field soil (loamy silt; non-sterile) and covered with a covering soil layer of about 1 cm. The pots were then cultivated in a greenhouse (12-16 h of light, temperature day 20-22° C., night 15-18° C.) until the time of application. […]

HORVS [7] = assay: PE application vs pre-sowing application, crop selectivity, greenhouse (Table 3); type: in vivo, Hordeum vulgare, summer barley; conditions: g of AS/ha: (A) 90, (B) 300, (C) 140, (A)+(B)+(C) 90 + 300 + 140
Experimental: as §1, §2, §3

HORVS [8] = assay: PO application, crop selectivity, greenhouse (Table 2); type: in vivo, Hordeum vulgare, summer barley; conditions: g of AS/ha: (A) 120, (B) 1200, (C) 140, (A)+(B)+(C) 120 + 1200 + 140, visual, about 3 weeks after application
Experimental: as §1, §2, §4

HORVS [9] = assay: Activity with different soil types, crop selectivity, greenhouse (Table 5); type: in vivo, Hordeum vulgare, summer barley; conditions: g of AS/ha: (A) 90, (B) 300, (C) 140, (A)+(B)+(C) 90 + 300 + 140
Experimental: as §1, §2, §3

HORVS [10] = assay: PE application with different irrigation, crop selectivity, greenhouse (Table 4); type: in vivo, Hordeum vulgare, summer barley; conditions: g of AS/ha: (A) 90, (B) 300, (C) 140, (A)+(B)+(C) 90 + 300 + 140
Experimental: as §1, §2, §3

MATCH [11] = assay: Different soil pH, PE application, greenhouse (Table 8); type: in vivo, Matricaria chamomilla
Experimental: as §1, §2, §3

MATCH [12] = assay: PE application with different irrigation, greenhouse (Table 4); type: in vivo, Matricaria chamomilla; conditions: g of AS/ha: (A) 90, (B) 300, (C) 140, (A)+(B)+(C) 90 + 300 + 140
Experimental: as §1, §2, §3

[13] = soil pH 7.4, g of AS/ha: (A) 90, (B) 300, (C) 140, (A)+(B)+(C) 90 + 300 + 140
[14] = soil pH 8.4, g of AS/ha: (A) 90, (B) 300, (C) 140, (A)+(B)+(C) 90 + 300 + 140
[15] = IU soil (loamy silt standard field soil)
[16] = IU/EC73 soil (heavy soil, higher organic substance)

SMILES: CC(C)N(C(=O)COc1nnc(C(F)(F)F)s1)c1ccc(F)cc1 [(A) flufenacet, N-(4-fluorophenyl)-N-(1-methylethyl)-2-[[5-(trifluoromethyl)-1,3,4-thiadiazol-2-yl]oxy]acetamide]
- activity HORVS pH 7.4 (crop plant) (HORVS [1]; [13]): 10%
- activity HORVS pH 8.4 (crop plant) (HORVS [1]; [14]): 10%
- activity AVEFA (AVEFA; irrigation from above): 92%
- activity AVEFA (AVEFA; irrigation from below): 63%
- activity STEME (STEME [2]; PE application): 0%
- activity STEME (STEME [2]; incorporation into the soil): 20%
- activity TRZAW pH 7.4 (crop plant) (TRZAW; [13]): 0%
- activity TRZAW pH 8.4 (crop plant) (TRZAW; [14]): 20%
- activity STEME resistant (STEME [3]): 0%
- activity STEME sensitive (STEME [3]): 0%
- activity HORVS (crop plant) (HORVS [4]; PE application): 20%
- activity HORVS (crop plant) (HORVS [4]; incorporation into the soil): 60%
- activity VIOAR IU soil (VIOAR; [15]): 0%
- activity V18 VIOAR IU/EC73 soil (VIOAR; [16]): 0%
- activity HORVS 5 mm (crop plant) (HORVS [5]; sowing depth 5 mm): 30%
- activity HORVS 20 mm (crop plant) (HORVS [5]; sowing depth 20 mm): 20%
- activity STEME IU soil (STEME [6]; [15]): 0%
- activity STEME IU/EC73 soil (STEME [6]; [16]): 0%
- activity POAAN (POAAN): 60%
- activity HORVS (crop plant) (HORVS [7]; PE application): 20%
- activity HORVS (crop plant) (HORVS [7]; application 7 days prior to sowing): 40%
- activity HORVS (crop plant) (HORVS [8]): 40%
- activity HORVS IU soil (crop plant) (HORVS [9]; [15]): 10%
- activity HORVS IU/EC73 soil (crop plant) (HORVS [9]; [16]): 0%
- activity HORVS (crop plant) (HORVS [10]; irrigation from above): 95%
- activity HORVS (crop plant) (HORVS [10]; irrigation from below): 80%
- activity MATCH pH 7.4 (MATCH [11]; [13]): 5%
- activity MATCH pH 8.4 (MATCH [11]; [14]): 0%
- activity MATCH (MATCH [12]; irrigation from above): 49%
- activity MATCH (MATCH [12]; irrigation from below): 15%

SMILES: COc1nc(C)nc(NC(=O)NS(=O)(=O)c2cc(I)ccc2C(=O)O)n1 [iodosulfuron]
- activity STEME resistant (STEME [3]): 40%
- activity STEME sensitive (STEME [3]): 90%
